Data published in ChEMBL document CHEMBL4616583 (J Med Chem, 2019).
pIC50: −log10 of the molar value. Values after ≈ are worked out from the molar mass of the structure shown. Active and inactive are the calls of the source. The rule behind the calls is not given here.

Columns and labels:
[1] = in vivo; conditions: rat, urine, po, 10 mg/kg
[2] = in vitro; conditions: human, microsomes
[3] = in vivo; conditions: mouse, plasma
[4] = in vivo; conditions: mouse, plasma; remark: listed apart in the source
[5] = in vitro; conditions: human, microsomes; remark: listed apart in the source
[6] = organism: Homo sapiens; conditions: 10 uM
[7] = organism: Homo sapiens; conditions: 10 uM; remark: listed apart in the source
[8] = target: Tyrosine-protein kinase BTK (Mus musculus) (UniProt P35991); conditions: 0.5 mg/kg
Tyrosine-protein kinase BTK (Mus musculus), sequence (P35991 whole entry): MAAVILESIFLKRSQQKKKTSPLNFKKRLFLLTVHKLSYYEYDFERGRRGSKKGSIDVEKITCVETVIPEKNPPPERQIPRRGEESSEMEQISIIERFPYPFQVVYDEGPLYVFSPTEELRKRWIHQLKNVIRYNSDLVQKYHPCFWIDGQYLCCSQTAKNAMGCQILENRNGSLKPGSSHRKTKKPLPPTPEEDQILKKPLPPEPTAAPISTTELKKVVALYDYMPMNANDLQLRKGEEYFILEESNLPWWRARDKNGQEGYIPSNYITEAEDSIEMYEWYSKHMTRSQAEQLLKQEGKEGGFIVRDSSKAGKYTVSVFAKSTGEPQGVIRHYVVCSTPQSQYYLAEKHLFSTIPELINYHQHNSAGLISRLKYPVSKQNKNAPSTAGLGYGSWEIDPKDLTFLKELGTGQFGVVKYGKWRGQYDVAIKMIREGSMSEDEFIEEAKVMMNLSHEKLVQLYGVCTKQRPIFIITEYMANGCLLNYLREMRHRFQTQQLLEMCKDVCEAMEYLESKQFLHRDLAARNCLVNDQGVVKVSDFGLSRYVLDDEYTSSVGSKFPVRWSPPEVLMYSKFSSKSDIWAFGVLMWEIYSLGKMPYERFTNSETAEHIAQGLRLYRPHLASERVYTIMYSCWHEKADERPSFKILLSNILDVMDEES

[9] = target: Tyrosine-protein kinase BTK (Mus musculus) (UniProt P35991); conditions: 0.5 mg/kg; remark: listed apart in the source
[10] = target: Tyrosine-protein kinase BTK (Mus musculus) (UniProt P35991); conditions: 0.5 to 2.5 mg/kg
[11] = target: Tyrosine-protein kinase BTK (Mus musculus) (UniProt P35991); conditions: DBA1/J, 0.1 mg/kg
[12] = target: Tyrosine-protein kinase BTK (Mus musculus) (UniProt P35991); conditions: DBA1/J, 0.5 mg/kg
[13] = target: Tyrosine-protein kinase BTK (Mus musculus) (UniProt P35991); conditions: DBA1/J, 2.5 mg/kg
[14] = organism: Mus musculus; conditions: DBA1/J, 0.1 to 2.5 mg/kg
[15] = target: Tyrosine-protein kinase BTK (Mus musculus) (UniProt P35991); conditions: NZB/WF1, 0.2 mg/kg
[16] = target: Tyrosine-protein kinase BTK (Mus musculus) (UniProt P35991); conditions: NZB/WF1, 0.5 mg/kg
[17] = system: B cell; assay: cells; conditions: Homo sapiens
[18] = in vivo; conditions: mouse, po, 4 mg/kg
[19] = in vivo; conditions: rat, po, 5 mg/kg
[20] = in vivo; conditions: rhesus monkey, po, 2 mg/kg
[21] = in vivo; conditions: dog, po, 2 mg/kg
[22] = in vivo; conditions: mouse, po, 4 mg/kg; remark: listed apart in the source
[23] = in vivo; conditions: rat, po, 5 mg/kg; remark: listed apart in the source
[24] = in vivo; conditions: rhesus monkey, po, 2 mg/kg; remark: listed apart in the source
[25] = in vivo; conditions: dog, po, 2 mg/kg; remark: listed apart in the source
[26] = in vivo; conditions: mouse, po, 4 mg/kg; remark: listed apart in the source
[27] = in vivo; conditions: rat, po, 5 mg/kg; remark: listed apart in the source
[28] = in vivo; conditions: rhesus monkey, po, 2 mg/kg; remark: listed apart in the source
[29] = in vivo; conditions: dog, po, 2 mg/kg; remark: listed apart in the source
[30] = in vivo; conditions: mouse, po, 4 mg/kg; remark: listed apart in the source
[31] = in vivo; conditions: rat, po, 5 mg/kg; remark: listed apart in the source
[32] = in vivo; conditions: rhesus monkey, po, 2 mg/kg; remark: listed apart in the source
[33] = in vivo; conditions: dog, po, 2 mg/kg; remark: listed apart in the source
[34] = in vivo; conditions: mouse, iv, 2 mg/kg
[35] = in vivo; conditions: rat, iv, 5 mg/kg
[36] = in vivo; conditions: rhesus monkey, iv, 1 mg/kg
[37] = in vivo; conditions: dog, iv, 1 mg/kg
[38] = in vivo; conditions: mouse, iv, 2 mg/kg; remark: listed apart in the source
[39] = in vivo; conditions: rat, iv, 5 mg/kg; remark: listed apart in the source
[40] = in vivo; conditions: rhesus monkey, iv, 1 mg/kg; remark: listed apart in the source
[41] = in vivo; conditions: dog, iv, 1 mg/kg; remark: listed apart in the source
[42] = in vivo; conditions: mouse, iv, 2 mg/kg; remark: listed apart in the source
[43] = in vivo; conditions: rat, iv, 5 mg/kg; remark: listed apart in the source
[44] = in vivo; conditions: rhesus monkey, iv, 1 mg/kg; remark: listed apart in the source
[45] = in vivo; conditions: dog, iv, 1 mg/kg; remark: listed apart in the source
[46] = in vivo; conditions: mouse, iv, 2 mg/kg; remark: listed apart in the source
[47] = in vivo; conditions: rat, iv, 5 mg/kg; remark: listed apart in the source
[48] = in vivo; conditions: rhesus monkey, iv, 1 mg/kg; remark: listed apart in the source
[49] = in vivo; conditions: dog, iv, 1 mg/kg; remark: listed apart in the source
[50] = in vitro; conditions: human, plasma
[51] = in vitro; conditions: mouse, plasma
[52] = in vitro; conditions: rat, plasma
[53] = in vitro; conditions: dog, plasma
[54] = in vitro; conditions: rhesus monkey, plasma
[55] = in vitro; conditions: PAMPA, pH 5.5
[56] = in vitro; conditions: human, Caco-2
[57] = in vitro; conditions: human, Caco-2; remark: listed apart in the source
[58] = physchem; conditions: buffer, pH 1
[59] = physchem; conditions: fasted state simulated intestinal fluid (FaSSIF)
[60] = physchem; conditions: fed state simulated intestinal fluid (FeSSIF)
[61] = physchem; conditions: buffer, pH 7
[62] = in vitro; conditions: PAMPA, pH 7.4
[63] = system: Cynomolgus monkey; assay: animal or person; conditions: Macaca fascicularis, po, 4 h, read-out: INH
[64] = system: Cynomolgus monkey; assay: animal or person; conditions: Macaca fascicularis, po, 72 h, read-out: INH
[65] = organism: Mus musculus; assay: animal or person; conditions: DBA1/J, po, 912 h, read-out: INH
[66] = organism: Mus musculus; assay: animal or person; conditions: NZB/WF1, po, 504 h, read-out: INH
[67] = organism: Mus musculus; assay: animal or person; conditions: NZB/WF1, po, 504 h, read-out: INH; remark: listed apart in the source
[68] = organism: Mus musculus; assay: animal or person; conditions: NZB/WF1, po, 504 h, read-out: INH; remark: listed apart in the source

CC#C[14C](=O)N[C@H]1CCCN(c2c(F)cc(C(N)=O)c3[nH]c(C)c(C)c23)C1
dose excreted at 72 h [1]: 0.7%

C=CS(=O)(=O)N[C@@H]1CCCN(c2ccc(C(N)=O)c3[nH]c(C)c(C)c23)C1
remaining at 10 min [2]: 84%

CC#CC(=O)N[C@H]1CCCN(c2ccc(C(N)=O)c3[nH]c(C)c(C)c23)C1
Cmax [3]: 0.49 µM | AUC [4]: 1.1 µM·h

C=CS(=O)(=O)N[C@H]1CCCN(c2ccc(C(N)=O)c3[nH]c(C)c(C)c23)C1
Cmax [3]: 0.127 µM | remaining at 10 min [2]: 90% | half-life [5]: 0.833 h

CC#CC(=O)N[C@H]1CCCN(c2c(F)cc(C(N)=O)c3[nH]c(C)c(C)c23)C1 [BRANEBRUTINIB]
inhibition [6]: 3.1% | inhibition [7]: 23% | inhibition [8]: 90% | inhibition [9]: 86% | inhibition [10]: 25% | inhibition [11]: 64% | inhibition [12]: 97% | inhibition [13]: 99% | inhibition [14]: Active | inhibition [15]: 92% | inhibition [16]: 99% | pIC50 [17]: 10.40 | Cmax [3]: 42 µM | AUC [4]: 52 µM·h | Cmax [18]: 7.7 µM | Cmax [19]: 9.6 µM | Cmax [20]: 2.3 µM | Cmax [21]: 19 µM | Tmax [22]: 1 h | Tmax [23]: 0.58 h | Tmax [24]: 1 h | Tmax [25]: 0.67 h | AUC [26]: 14 µM·h | AUC [27]: 18 µM·h | AUC [28]: 4.9 µM·h | AUC [29]: 78 µM·h | bioavailability [30]: 106% | bioavailability [31]: 74% | bioavailability [32]: 46% | bioavailability [33]: 81% | half-life [34]: 0.46 h | half-life [35]: 4.3 h | half-life [36]: 3.2 h | half-life [37]: 3 h | MRT [38]: 0.57 h | MRT [39]: 0.8 h | MRT [40]: 1 h | MRT [41]: 4.1 h | clearance [42]: 14 mL/min/kg | clearance [43]: 8.7 mL/min/kg | clearance [44]: 9.4 mL/min/kg | clearance [45]: 0.94 mL/min/kg | Vd [46]: 0.48 L/kg | Vd [47]: 0.4 L/kg | Vd [48]: 0.45 L/kg | Vd [49]: 0.24 L/kg | fraction unbound [50]: 0.012 | fraction unbound [51]: 0.004 | fraction unbound [52]: 0.002 | fraction unbound [53]: 0.002 | fraction unbound [54]: 0.004 | Papp [55]: 85.9 ×10⁻⁶ cm/s | Papp A→B [56]: 17.7 to 42.2 ×10⁻⁶ cm/s | Papp B→A [57]: 12.7 to 25 ×10⁻⁶ cm/s | solubility [58]: 2 to 3 µg/mL (≈ 5.4 to 8.1 µM) | solubility [59]: 9 µg/mL (≈ 24.3 µM) | solubility [60]: 145 µg/mL (≈ 391 µM) | logD [61]: 3.18 | Papp [62]: 97.8 ×10⁻⁶ cm/s | inhibition in vivo at 0.5 mg/kg [63]: 100% | inhibition in vivo at 0.5 mg/kg [64]: 74% | inhibition in vivo at 2.5 mg/kg [65]: 92% | inhibition in vivo at 0.2 mg/kg [66]: 40% | inhibition in vivo at 0.5 mg/kg [67]: 51% | inhibition in vivo at […] [68]: 61%
